Laboratory results: the supplement of paper PMC3770661
± gives the uncertainty stated by the source.

System: HepG2 (L1.3 5'UTR promoter firefly luciferase reporter)
Assay: L1 promoter activity (FLuc/RLuc) relative to DMSO vehicle control (% of control); higher = stronger L1 promoter activation
Protocol: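 HepG2 cells in 96-well plates were cotransfected with pGL4.11-L1.3 5'UTR (firefly luciferase driven by the human L1.3 5'UTR promoter) and pGL4.74 (HSV-TK Renilla luciferase internal control), then treated with compound for 6 or 24 h. FLuc/RLuc ratio was normalised to the DMSO vehicle control (% of control); concentrations where RLuc fell below 50% of control were excluded (N.D.). Mean of at least two independent experiments in duplicate or quadruplicate.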

[1] = concentration (uM unless unit written): 0.1, treatment time: 6 h
[2] = concentration (uM unless unit written): 0.1, treatment time: 24 h
[3] = concentration (uM unless unit written): 1, treatment time: 6 h
[4] = concentration (uM unless unit written): 1, treatment time: 24 h
[5] = concentration (uM unless unit written): 5, treatment time: 6 h
[6] = concentration (uM unless unit written): 5, treatment time: 24 h
[7] = concentration (uM unless unit written): 125, treatment time: 6 h
[8] = concentration (uM unless unit written): 125, treatment time: 24 h
[9] = concentration (uM unless unit written): 250, treatment time: 6 h
[10] = concentration (uM unless unit written): 250, treatment time: 24 h
[11] = concentration (uM unless unit written): 500, treatment time: 6 h
[12] = concentration (uM unless unit written): 500, treatment time: 24 h
[13] = concentration (uM unless unit written): 10, treatment time: 6 h
[14] = concentration (uM unless unit written): 10, treatment time: 24 h
[15] = concentration (uM unless unit written): 100, treatment time: 6 h
[16] = concentration (uM unless unit written): 100, treatment time: 24 h
[17] = concentration (uM unless unit written): 1000, treatment time: 6 h
[18] = concentration (uM unless unit written): 50, treatment time: 6 h
[19] = concentration (uM unless unit written): 1000, treatment time: 24 h
[20] = concentration (uM unless unit written): 3, treatment time: 6 h
[21] = concentration (uM unless unit written): 3, treatment time: 24 h
[22] = concentration (uM unless unit written): 25, treatment time: 6 h
[23] = concentration (uM unless unit written): 25, treatment time: 24 h
[24] = concentration (uM unless unit written): 50, treatment time: 24 h
[25] = concentration (uM unless unit written): 0.5, treatment time: 6 h
[26] = concentration (uM unless unit written): 0.5, treatment time: 24 h
[27] = concentration (uM unless unit written): 2500, treatment time: 6 h
[28] = concentration (uM unless unit written): 2500, treatment time: 24 h

CC[C@]1(O)C[C@@H]2CN(CCc3c([nH]c4ccccc34)[C@@](C(=O)OC)(c3cc4c(cc3OC)N(C)[C@H]3[C@@](O)(C(=O)OC)[C@H](OC(C)=O)[C@]5(CC)C=CCN6CC[C@]43[C@@H]65)C2)C1 [Vinblastine]
L1 promoter activity [1]: 92.8 ± 15 | L1 promoter activity [2]: 181 ± 31 | L1 promoter activity [3]: 92.1 ± 23 | L1 promoter activity [4]: 161 ± 30 | L1 promoter activity [5]: 94 ± 12 | L1 promoter activity [6]: 207 ± 24

COc1ccc2c(c1OC)C(=O)OC2C1c2c(cc3c(c2OC)OCO3)CCN1C [(S,R)-Noscapine]
L1 promoter activity [7]: 85.3 ± 11 | L1 promoter activity [8]: 40.8 ± 2.2 | L1 promoter activity [9]: 80.1 ± 20 | L1 promoter activity [10]: 33.3 ± 5.6 | L1 promoter activity [11]: 68.2 ± 9.4 | L1 promoter activity [12]: 30.4 ± 4.2

CC(C)(Oc1ccc(CCNC(=O)c2ccc(Cl)cc2)cc1)C(=O)O [Bezafibrate]
L1 promoter activity [13]: 115 ± 13 | L1 promoter activity [14]: 105 ± 4.7 | L1 promoter activity [15]: 140 ± 11 | L1 promoter activity [16]: 133 ± 13 | L1 promoter activity [17]: 174 ± 14

Cc1cn([C@H]2C[C@H](N=[N+]=[N-])[C@@H](CO)O2)c(=O)[nH]c1=O [Azidothymidine]
L1 promoter activity [18]: 107 ± 25 | L1 promoter activity [15]: 106 ± 26 | L1 promoter activity (concentration (uM unless unit written): 200, treatment time: 6 h): 111 ± 27 | L1 promoter activity (concentration (uM unless unit written): 200, treatment time: 24 h): 104 ± 13 | L1 promoter activity [19]: 110 ± 7.2

CC(=O)S[C@@H]1CC2=CC(=O)CC[C@]2(C)[C@H]2CC[C@@]3(C)[C@@H](CC[C@@]34CCC(=O)O4)[C@H]12 [Spironolactone]
L1 promoter activity [3]: 104 ± 9.8 | L1 promoter activity [4]: 89.3 ± 3.8 | L1 promoter activity [20]: 97.8 ± 9.3 | L1 promoter activity [21]: 100 ± 8.9 | L1 promoter activity (concentration (uM unless unit written): 30, treatment time: 6 h): 88.5 ± 9.3 | L1 promoter activity (concentration (uM unless unit written): 30, treatment time: 24 h): 111 ± 12

O=C(O)CC[N+](=O)[O-] [3-Nitropropionic acid]
L1 promoter activity [7]: 114 ± 5 | L1 promoter activity [8]: 95.1 ± 5.4 | L1 promoter activity [9]: 112 ± 14 | L1 promoter activity [10]: 94.2 ± 18 | L1 promoter activity [11]: 119 ± 14 | L1 promoter activity [12]: 80.7 ± 11

CC(=O)[C@H]1CC[C@H]2[C@@H]3CCC4=CC(=O)CC[C@]4(C)[C@H]3CC[C@]12C [Progesterone]
L1 promoter activity [22]: 101 ± 7.1 | L1 promoter activity [23]: 81.7 ± 12 | L1 promoter activity [18]: 90.4 ± 15 | L1 promoter activity [24]: 67.8 ± 7.1 | L1 promoter activity [15]: 73.7 ± 6.7

Cc1cccc(Nc2ccccc2C(=O)O)c1C [Mefenamic acid]
L1 promoter activity [18]: 128 ± 8.3 | L1 promoter activity [24]: 91 ± 5.5 | L1 promoter activity [11]: 113 ± 19 | L1 promoter activity [17]: 93.8 ± 13

CC(=O)CC(c1ccccc1)c1c(O)c2ccccc2oc1=O (stereo unspecified) [Warfarin]
L1 promoter activity [22]: 98.9 ± 11 | L1 promoter activity [23]: 85 ± 5.2 | L1 promoter activity [18]: 89.5 ± 12 | L1 promoter activity [24]: 85.8 ± 14 | L1 promoter activity [15]: 91.7 ± 11 | L1 promoter activity [16]: 74.2 ± 9.4 | L1 promoter activity [11]: 90.8 ± 25 | L1 promoter activity [12]: 64.1 ± 6.6

C=CCCC(=O)O [4-Pentenoic acid]
L1 promoter activity (concentration (uM unless unit written): 25000, treatment time: 6 h): 102 ± 2.3 | L1 promoter activity (concentration (uM unless unit written): 25000, treatment time: 24 h): 28.2 ± 0.94 | L1 promoter activity (concentration (uM unless unit written): 50000, treatment time: 6 h): 99.1 ± 4.5 | L1 promoter activity (concentration (uM unless unit written): 50000, treatment time: 24 h): 22.5 ± 1.7 | L1 promoter activity (concentration (uM unless unit written): 100000, treatment time: 6 h): 101 ± 26 | L1 promoter activity (concentration (uM unless unit written): 100000, treatment time: 24 h): 25.8 ± 2.7

CCOC(=O)CC(O)C(=O)OCC (stereo unspecified) [Diethyl malate]
L1 promoter activity (concentration (uM unless unit written): 375, treatment time: 6 h): 127 ± 13 | L1 promoter activity (concentration (uM unless unit written): 750, treatment time: 6 h): 159 ± 18

COc1cccc2c1C(=O)c1c(O)c3c(c(O)c1C2=O)C[C@@](O)(C(=O)CO)C[C@@H]3O[C@H]1C[C@H](N)[C@H](O)[C@H](C)O1 [Doxorubicin]
L1 promoter activity [2]: 88.8 ± 15 | L1 promoter activity [25]: 101 ± 33 | L1 promoter activity [26]: 40.2 ± 13 | L1 promoter activity [3]: 98.1 ± 26 | L1 promoter activity [4]: 30.3 ± 5.5

COc1ccccc1OCC(O)CO (stereo unspecified) [Guaiacol glyceryl ether]
L1 promoter activity (concentration (uM unless unit written): 1250, treatment time: 6 h): 123 ± 7.7 | L1 promoter activity (concentration (uM unless unit written): 1250, treatment time: 24 h): 99.7 ± 7.2 | L1 promoter activity [27]: 136 ± 19 | L1 promoter activity [28]: 112 ± 19 | L1 promoter activity (concentration (uM unless unit written): 5000, treatment time: 6 h): 149 ± 13 | L1 promoter activity (concentration (uM unless unit written): 5000, treatment time: 24 h): 145 ± 15

CC1=C2C(=CO[C@H](C)[C@H]2C)C(O)=C(C(=O)O)C1=O [Citrinin]
L1 promoter activity (concentration (uM unless unit written): 45, treatment time: 6 h): 101 ± 12 | L1 promoter activity (concentration (uM unless unit written): 45, treatment time: 24 h): 104 ± 14 | L1 promoter activity (concentration (uM unless unit written): 90, treatment time: 6 h): 102 ± 10 | L1 promoter activity (concentration (uM unless unit written): 90, treatment time: 24 h): 134 ± 25

c1ccc2c(c1)cc1ccc3cccc4ccc2c1c34 [Benzo(a)pyrene]
L1 promoter activity [25]: 102 ± 12 | L1 promoter activity [26]: 132 ± 17 | L1 promoter activity [3]: 117 ± 12 | L1 promoter activity [4]: 140 ± 22 | L1 promoter activity [20]: 133 ± 18 | L1 promoter activity [21]: 187 ± 37

CC[C@H](C)C(=O)O[C@H]1C[C@H](O)C=C2C=C[C@H](C)[C@H](CC[C@@H](O)C[C@@H](O)CC(=O)O)[C@H]21 [Pravastatin]
L1 promoter activity [27]: 130 ± 8.2 | L1 promoter activity [28]: 102 ± 7.9

Nc1nc2c(ncn2COC(CO)CO)c(=O)[nH]1 [Ganciclovir]
L1 promoter activity [11]: 109 ± 17 | L1 promoter activity [12]: 98.3 ± 6.1 | L1 promoter activity [17]: 115 ± 16 | L1 promoter activity [19]: 104 ± 11

CC(C)Cc1ccc(C(C)C(=O)O)cc1 (stereo unspecified) [Ibuprofen]
L1 promoter activity [9]: 118 ± 8.4 | L1 promoter activity [10]: 90.8 ± 3.5 | L1 promoter activity [11]: 99.7 ± 9.8 | L1 promoter activity [12]: 89.6 ± 10 | L1 promoter activity [17]: 97.2 ± 8.2 | L1 promoter activity [19]: 74.9 ± 7.6

O=P1(N(CCCl)CCCl)NCCCO1 (stereo unspecified) [Cyclophosphamide]
L1 promoter activity (concentration (uM unless unit written): 10000, treatment time: 6 h): 96.3 ± 14 | L1 promoter activity (concentration (uM unless unit written): 10000, treatment time: 24 h): 95.3 ± 11 | L1 promoter activity (concentration (uM unless unit written): 20000, treatment time: 6 h): 93.6 ± 22 | L1 promoter activity (concentration (uM unless unit written): 20000, treatment time: 24 h): 77.9 ± 4.5 | L1 promoter activity (concentration (uM unless unit written): 40000, treatment time: 6 h): 98.3 ± 8.4

C=C(C)[C@H]1Cc2c(ccc3c2O[C@@H]2COc4cc(OC)c(OC)cc4[C@@H]2C3=O)O1 [Rotenone]
L1 promoter activity (concentration (uM unless unit written): 0.075, treatment time: 6 h): 113 ± 28 | L1 promoter activity (concentration (uM unless unit written): 0.075, treatment time: 24 h): 90.8 ± 3.4 | L1 promoter activity [13]: 97.8 ± 8.2 | L1 promoter activity [18]: 93.6 ± 11

CCC(C)(C)C(=O)O[C@H]1C[C@@H](C)C=C2C=C[C@H](C)[C@H](CC[C@@H]3C[C@@H](O)CC(=O)O3)[C@H]21 [Simvastatin]
L1 promoter activity [3]: 94.1 ± 18 | L1 promoter activity [4]: 100 ± 12 | L1 promoter activity [20]: 93.1 ± 7.7 | L1 promoter activity [21]: 117 ± 14 | L1 promoter activity (concentration (uM unless unit written): 6, treatment time: 6 h): 108 ± 18 | L1 promoter activity (concentration (uM unless unit written): 6, treatment time: 24 h): 107 ± 15

NS(=O)(=O)c1cc(C(=O)O)c(NCc2ccco2)cc1Cl [Furosemide]
L1 promoter activity [15]: 104 ± 28 | L1 promoter activity [16]: 103 ± 24 | L1 promoter activity [9]: 97.3 ± 11 | L1 promoter activity [10]: 96.2 ± 8.4 | L1 promoter activity [11]: 96.9 ± 5.2 | L1 promoter activity [12]: 91.2 ± 6.5 | L1 promoter activity [17]: 89.1 ± 16 | L1 promoter activity [19]: 60.4 ± 2.4

O=c1[nH]cc(F)c(=O)[nH]1 [Fluorouracil]
L1 promoter activity [5]: 110 ± 30 | L1 promoter activity [6]: 107 ± 18 | L1 promoter activity [13]: 109 ± 22 | L1 promoter activity [14]: 83.2 ± 4.1 | L1 promoter activity (concentration (uM unless unit written): 20, treatment time: 6 h): 94.5 ± 11 | L1 promoter activity (concentration (uM unless unit written): 20, treatment time: 24 h): 73.4 ± 11

CC[C@@]1(O)C(=O)OCc2c1cc1n(c2=O)Cc2cc3ccccc3nc2-1 [Camptothecin]
L1 promoter activity (concentration (uM unless unit written): 0.05, treatment time: 6 h): 110 ± 17 | L1 promoter activity (concentration (uM unless unit written): 0.05, treatment time: 24 h): 142 ± 21 | L1 promoter activity [1]: 98.1 ± 16 | L1 promoter activity [2]: 135 ± 21 | L1 promoter activity (concentration (uM unless unit written): 0.3, treatment time: 6 h): 103 ± 22 | L1 promoter activity (concentration (uM unless unit written): 0.3, treatment time: 24 h): 152 ± 13

Cc1c2oc3c(C)ccc(C(=O)N[C@@H]4C(=O)N[C@H](C(C)C)C(=O)N5CCC[C@H]5C(=O)N(C)CC(=O)N(C)[C@@H](C(C)C)C(=O)O[C@@H]4C)c3nc-2c(C(=O)N[C@@H]2C(=O)N[C@H](C(C)C)C(=O)N3CCC[C@H]3C(=O)N(C)CC(=O)N(C)[C@@H](C(C)C)C(=O)O[C@@H]2C)c(N)c1=O [Actinomycin D]
L1 promoter activity (concentration (uM unless unit written): 0.0025, treatment time: 6 h): 132 ± 34 | L1 promoter activity (concentration (uM unless unit written): 0.005, treatment time: 6 h): 112 ± 12 | L1 promoter activity (concentration (uM unless unit written): 0.01, treatment time: 6 h): 110 ± 36 | L1 promoter activity (concentration (uM unless unit written): 0.01, treatment time: 24 h): 144 ± 19
